Laboratory results reported in patent US20260166159A1, “KRAS G12D DEGRADATION AGENT, AND PREPARATION METHOD AND USE THEREFOR” (LEADINGTAC PHARMACEUTICAL (SHAOXING) CO., LTD., priority 2022, published 2026).

Legend:
Assay type in all cases: cell-based
[1] = tested on: KRAS G12D mutant human pancreatic cancer cell Panc 04.03; test: 3D cell proliferation inhibition assay, Panc 04.03; conditions: 168 h, Panc 04.03, 7 days, CTG
Summary of the method: (§1)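 Cells seeded at 5×10^2 per well in low-adsorption plates with compounds at 10000–0.026 nM final (0.2% DMSO) and grown 7 days at 37 °C, 5% CO2. Viability by CellTiter-Glo luminescence after 60 min at room temperature; inhibition normalized to DMSO and medium-only controls, IC50 from nonlinear log-concentration fit.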

[2] = target: T1, KRAS-G12D (Homo sapiens, UniProt P01116, G12D); test: KRAS-G12D degradation assay (Western Blot), AsPc-1 cells; conditions: for DC50: 24 h; for Dmax: ASPC1, 24 h
T1 construct: endogenous in cells; host or cells: A-427 (ATCC), AGS, AsPc-1, Panc 04.03
T1 sequence (P01116 1-188 isoform P01116-2 G12D): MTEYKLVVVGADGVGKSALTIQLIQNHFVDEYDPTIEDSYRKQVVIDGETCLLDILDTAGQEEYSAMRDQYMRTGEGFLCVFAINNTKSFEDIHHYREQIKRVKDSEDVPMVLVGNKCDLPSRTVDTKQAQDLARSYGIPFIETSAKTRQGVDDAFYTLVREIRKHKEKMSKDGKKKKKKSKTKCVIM
Summary of the method: (§2)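 Each KRAS G12D mutant line (A-427, AGS, AsPc-1, Panc 04.03) was seeded at 5×10^5 cells/well and treated 24 h at 37 °C with 0.03–3000 nM compound (final DMSO 0.25%). KRAS in lysates was measured by Western blot, normalized to β-actin and compared with controls, giving DC50 and Dmax from curve fits.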

[3] = target: T1, KRAS-G12D; test: KRAS-G12D degradation assay (Western Blot), Panc 04.03 cells; conditions: 24 h
Experimental: (§3) The degradation effects of the compounds on KRAS-G12D were investigated on KRAS G12D mutant human lung cancer cell A-427 (ATCC), KRAS G12D mutant human gastric cancer cell AGS, KRAS G12D mutant human metastatic pancreatic cancer cell AsPc-1, and KRAS G12D mutant human pancreatic adenocarcinoma cell Panc 04.03. The specific procedures were as follows: 0.95 mL of cells were seeded into each well of a 24-well cell culture plate to achieve a cell density of 5×10^5 cells/well; and the cell plate was incubated in an incubator at 37° C. with 5% CO2 overnight. Then 50 μL of the compound solution after dilution was added to each of the wells with the corresponding cells, so that the final concentration of the compound was in a range of 0.03-3000 nM. The final concentration of DMSO was 0.25%. After the compounds were added, the cell plate was incubated in the incubator at 37° C. with 5% CO2 for 24 h. The culture medium in the 24-well cell culture plate was removed, and the plate was washed twice with 1×PBS (KeyGEN). 120 μL of RIPA (strong) lysis buffer (Beyotime) supplemented with 1 mM phenylmethylsulfonyl fluoride, a protease inhibitor mixture (Beyotime), and a protease phosphatase inhibitor mixture (Beyotime) was added to lyse adherent A-427 cells at the bottom of the cell culture plate. After the plate was left to stand on ice for 30 min, the protein lysate in each well was transferred to a 1.5 mL centrifuge tube and centrifuged at 15000 g for 20 min at 4° C. The cell lysate supernatants after centrifugation were cryopreserved in a refrigerator at −80° C. for later use.
(§4) After the samples of the cell lysate supernatants that had been prepared were thawed from the refrigerator at −80° C., the total protein concentrations of the cell lysates were determined using a BCA protein quantification kit (Tiangen). The total protein concentrations of the samples were then adjusted to 0.5 μg/μL with PBS and 5×SDS-PAGE protein loading buffer (Beyotime), and the samples were incubated in a water bath at 100° C. for 15 min. The samples were then incubated in an ice bath for 5 min and centrifuged at 14000 g for 1 min at 4° C., and the supernatants were mixed well as loading samples for the Western Blot assay. The samples were loaded into wells of a 10% precast gel (KeyGEN) with a loading volume of 10 μL (total protein: 5 μg), a sufficient Tris-MOPS-SDS running buffer (Adamas) was added, and then electrophoresis was performed at a constant voltage of 120 V for 55 min. After the electrophoresis, the proteins on the gel were transferred to PVDF membranes at a constant current of 250 mA for 55 min. After the membrane transfer, the PVDF membranes were incubated in 1× Quick Block blocking buffer (Beyotime) at room temperature for 30 min. After the blocking, the PVDF membranes were separately incubated at 4° C. overnight with the KRAS antibody (Abcam) diluted in a ratio of 1:1000 and the […] antibody (Abcam) diluted in a ratio of 1:2000 in 5% BSA as the diluent, and then washed with 1×TBST buffer (2.4 g of Tris, 8.8 g of NaCl, 1.5 mL of Tween 20, with pH adjusted to 7.4, with the volume brought to 1 L) 3 times for 10 min/time. The membranes were incubated with a secondary antibody (Abcam) diluted in 5% BSA at room temperature for 2 h, and then washed with 1×TBST buffer 3 times for 10 min/time. Finally, the membranes were incubated with Clarity Western ECL Substrate (BIO-RAD) for 5 min for luminescence and color development, and a ChemiScope 6200 Touch chemiluminescence imaging system (Clinx) was used for color development and protein mapping. Gray value analysis of the protein maps was performed using the chemiluminescence analysis software (Clinx). The gray correction value for each sample was calculated using the formula: gray correction value=(gray value of target protein/gray value of corresponding internal reference)×10^3. Then degradation rates were calculated by comparison with the gray correction value of the control group. […]

[4] = target: T1, KRAS-G12D; test: KRAS-G12D degradation assay (Western Blot), A-427 cells; conditions: A427 cells, 24 h; for Dmax: A-427
Summary of the method: as §2

[5] = tested on: KRAS G12D mutant human lung cancer cell A427; test: 3D cell proliferation inhibition assay, A427; conditions: A-427, 168 h, A427, 7 days, CTG
Summary of the method: as §1

[6] = tested on: KRAS G12D mutant human pancreatic cancer cell HPAC; test: 3D cell proliferation inhibition assay, HPAC; conditions: 168 h, 7 days, CTG
Summary of the method: as §1

[7] = tested on: KRAS G12D mutant human gastric cancer cell AGS; test: 3D cell proliferation inhibition assay, AGS; conditions: 168 h, 7 days, CTG
Summary of the method: as §1

[8] = target: T1, KRAS-G12D; test: KRAS-G12D degradation assay (Western Blot), AGS cells; conditions: 24 h
Experimental: as §3, §4

[9] = tested on: KRAS G12D mutant human metastatic pancreatic cancer cell AsPc-1; test: 3D cell proliferation inhibition assay, AsPc-1; conditions: ASPC1, 168 h, AsPc-1, 7 days, CTG
Summary of the method: as §1

C#Cc1cccc2cc(O)cc(-c3ncc4c(N5CC6CCC(C5)N6)nc(OCC5(CN6CCN(CC7CCC8(CC7)CCN(C(=O)c7ccc(OC)c(N9CCC(=O)NC9=O)c7)CC8)CC6)CC5)nc4c3F)c12 [Example 82, 1-(5-(9-((4-((1-(((4-(3,8-diazabicyclo[3.2.1]octan-3-yl)-7-(8-ethynyl-3-hydroxynaphthalen-1-yl)-8-fluoropyrido[4,3-d]pyrimidin-2-yl)oxy)methyl)cyclopropyl)methyl)piperazin-1-yl)methyl)-3-azaspiro[5.5]undecane-3-carbonyl)-2-methoxyphenyl)dihydropyrimidine-2,4(1H,3H)-dione]
IC50 ([1]; numeric values): 14.1 nM
DC50 [2]: 12.6 nM
Dmax [2]: 93.7%
DC50 [3]: 6.74 nM
Dmax [3]: 100%
DC50 ([4]; numeric values): 1.21 nM
Dmax ([4]; numeric values): 99%
IC50 ([5]; numeric values): 21.8 nM
IC50 [6]: 4.15 nM
IC50 ([7]; numeric values): 5.78 nM
DC50 [8]: 3.84 nM
Dmax [8]: 97.7%
IC50 ([9]; numeric values): 4.95 nM

CCc1cccc2cc(O)cc(-c3ncc4c(N5CC6CCC(C5)N6)nc(OCC5(CN6CCN(CC7CCC8(CC7)CCN(C(=O)c7ccc(Cl)c(N9CCC(=O)NC9=O)c7)CC8)CC6)CC5)nc4c3F)c12 [Example 50, 1-(5-(9-((4-((1-(((4-(3,8-diazabicyclo[3.2.1]octan-3-yl)-7-(8-ethyl-3-hydroxynaphthalen-1-yl)-8-fluoropyrido[4,3-d]pyrimidin-2-yl)oxy)methyl)cyclopropyl)methyl)piperazin-1-yl)methyl)-3-azaspiro [5.5]undecane-3-carbonyl)-2-chlorophenyl)dihydropyrimidine-2,4(1H,3H)-dione]
IC50 ([1]; class symbols): ≤ 50 nM
DC50 [2]: 33.1 nM
Dmax [2]: 100%
DC50 [3]: 31.9 nM
Dmax [3]: 99.3%
DC50 ([4]; class symbols): ≤ 50 nM
Dmax ([4]; class symbols): 80 to 100%
IC50 ([5]; class symbols): ≤ 50 nM
IC50 [6]: 11.6 nM
IC50 ([7]; class symbols): ≤ 50 nM
DC50 [8]: 1.73 nM
Dmax [8]: 97.3%
IC50 ([9]; class symbols): ≤ 50 nM

C#Cc1c(F)ccc2cc(O)cc(-c3ccc4c(N5CC6CCC(C5)N6)nc(OCC5(CN6CCN(CC7CCC8(CC7)CCN(C(=O)c7ccc(OC)c(N9CCC(=O)NC9=O)c7)CC8)CC6)CC5)nc4c3F)c12 [Example 71, 1-(5-(9-((4-((1-(((4-(3,8-diazabicyclo[3.2.1]octan-3-yl)-7-(8-ethynyl-7-fluoro-3-hydroxynaphthalen-1-yl)-8-fluoroquinazolin-2-yl)oxy)methyl)cyclopropyl)methyl)piperazin-1-yl)methyl)-3-azaspiro[5.5]undecane-3-carbonyl)-2-methoxyphenyl)dihydropyrimidine-2,4(1H,3H)-dione]
IC50 ([1]; numeric values): 16.7 nM
DC50 [2]: 4.76 nM
Dmax [2]: 98.6%
DC50 [3]: 11.9 nM
Dmax [3]: 98.8%
DC50 ([4]; numeric values): 2.1 nM
Dmax ([4]; numeric values): 95%
IC50 ([5]; numeric values): 46.8 nM
IC50 [6]: 9.31 nM
IC50 ([7]; numeric values): 4.17 nM
DC50 [8]: 7.02 nM
Dmax [8]: 99.6%
IC50 ([9]; numeric values): 5.28 nM

CCc1c(F)ccc2cc(O)cc(-c3ccc4c(N5CC6CCC(C5)N6)nc(OCC5(CN6CCN(CC7CCC8(CC7)CCN(C(=O)c7ccc(OC)c(N9CCC(=O)NC9=O)c7)CC8)CC6)CC5)nc4c3F)c12 [Example 73, 1-(5-(9-((4-((1-(((4-(3,8-diazabicyclo[3.2.1]octan-3-yl)-7-(8-ethyl-7-fluoro-3-hydroxynaphthalen-1-yl)-8-fluoroquinazolin-2-yl)oxy)methyl)cyclopropyl)methyl)piperazin-1-yl)methyl)-3-azaspiro[5.5]undecane-3-carbonyl)-2-methoxyphenyl)dihydropyrimidine-2,4(1H,3H)-dione]
IC50 ([1]; numeric values): 64.8 nM
DC50 [2]: 35.7 nM
Dmax [2]: 100%
DC50 [3]: 27.1 nM
Dmax [3]: 95.6%
DC50 ([4]; numeric values): 19.8 nM
Dmax ([4]; numeric values): 87.2%
IC50 ([5]; numeric values): 3.54 nM
IC50 [6]: 14.7 nM
IC50 ([7]; numeric values): 21.1 nM
DC50 [8]: 16 nM
Dmax [8]: 85.7%
IC50 ([9]; numeric values): 14.9 nM

C#Cc1cccc2cc(O)cc(-c3ccc4c(N5CC6CCC(C5)N6)nc(OCC5(CN6CCN(CC7CCC8(CC7)CCN(C(=O)c7ccc(C)c(N9CCC(=O)NC9=O)c7)CC8)CC6)CC5)nc4c3F)c12 [Example 77, 1-(5-(9-((4-((1-(((4-(3,8-diazabicyclo[3.2.1]octan-3-yl)-7-(8-ethynyl-3-hydroxynaphthalen-1-yl)-8-fluoroquinazolin-2-yl)oxy)methyl)cyclopropyl)methyl)piperazin-1-yl)methyl)-3-azaspiro[5.5]undecane-3-carbonyl)-2-methylphenyl)dihydropyrimidine-2,4(1H,3H)-dione]
IC50 ([1]; numeric values): 31.5 nM
DC50 [2]: 13.2 nM
Dmax [2]: 98.2%
DC50 [3]: 26.2 nM
Dmax [3]: 98.5%
DC50 ([4]; numeric values): 1.76 nM
Dmax ([4]; numeric values): 94.5%
IC50 ([5]; numeric values): 17.8 nM
IC50 [6]: 9.54 nM
IC50 ([7]; numeric values): 8.9 nM
DC50 [8]: 1.47 nM
Dmax [8]: 100%
IC50 ([9]; numeric values): 6.75 nM

CCc1cccc2cc(O)cc(-c3ncc4c(N5CC6CCC(C5)N6)nc(OCC5(CN6CCN(CC7CCC8(CC7)CCN(C(=O)c7ccc(C)c(N9CCC(=O)NC9=O)c7)CC8)CC6)CC5)nc4c3F)c12 [Example 51, 1-(5-(9-((4-((1-(((4-(3,8-diazabicyclo[3.2.1]octan-3-yl)-7-(8-ethyl-3-hydroxynaphthalen-1-yl)-8-fluoropyrido[4,3-d]pyrimidin-2-yl)oxy)methyl)cyclopropyl)methyl)piperazin-1-yl)methyl)-3-azaspiro[5.5]undecane-3-carbonyl)-2-methylphenyl)dihydropyrimidine-2,4(1H,3H)-dione]
IC50 ([1]; class symbols): ≤ 50 nM
DC50 [2]: 4.79 nM
Dmax [2]: 99.4%
DC50 [3]: 23 nM
Dmax [3]: 93.8%
DC50 ([4]; class symbols): ≤ 50 nM
Dmax ([4]; class symbols): 80 to 100%
IC50 ([5]; class symbols): ≤ 50 nM
IC50 [6]: 4.55 nM
IC50 ([7]; class symbols): ≤ 50 nM
DC50 [8]: 9.87 nM
Dmax [8]: 97.2%
IC50 ([9]; class symbols): ≤ 50 nM
